System: locally advanced or metastatic breast cancer
Assay: Phase III clinical trial comparing eribulin mesylate and capecitabine
[1] = of patients with any new metastasis

Method: A global, randomized, open-label, two-parallel-arm, phase III clinical trial of eribulin (eribulin mesylate) and capecitabine was performed.
This study randomized 1102 patients who had up to three prior chemotherapy regimens, and no more than two prior regimens for advanced and/or metastatic disease. The prior regimens must have included an anthracycline and a taxane, either in the (neo) adjuvant setting or for locally advanced or metastatic disease. Patients must have had documented evidence of progression during or after their most recent anti-cancer therapy. […] Patients were randomized to receive either eribulin mesylate as an intravenous (IV) infusion of 1.4 mg/m^2 over 2-5 minutes on days 1 and 8 every 21 days or capecitabine as an oral administration of 2.5 g/m^2/day administered twice daily in two equal doses on days 1 to 14 every 21 days.
This study was designed to have co-primary endpoints, overall survival (OS) and progression free survival (PFS), with alpha spending 0.04 and 0.01, respectively.
Progression events (disease progression determined by Response Evaluation Criteria in Solid Tumors [RECIST, version 1.0]) were categorized as: (i) emergence of a new lesion/metastasis, defined here as a lesion identified at progression that had not been previously reported, (ii) increase in size of an existing (previously reported) lesion (target or non-target), and (iii) other PFS event, e.g., death, clinical progression, or censoring. Investigator review of disease progression was used as the primary analysis for these investigations. Where progression was determined by investigator review, no further scans were performed, leading to informative censoring of independent review data (approximately 20%). The number of new metastases observed by independent review was considered an under-estimate due to this considerable informative censoring. OS and PFS were compared between treatment arms using two-sided, stratified (geographic region and HER2 status) log-rank tests. The correlation between progression events and OS was investigated by Cox regression, incorporating the event as a time-dependent covariate. New metastasis-free survival, defined as time from randomization to death or progression due to appearance of a new metastasis (whichever occurs earlier), was also analyzed.

In the case of CCCCCOC(=O)Nc1nc(=O)n([C@@H]2O[C@H](C)[C@@H](O)[C@H]2O)cc1F [Capecitabine, reference compound], the “median overall survival (OS)” value (all randomized patients) is reported as 14.5 months, the “median progression-free survival (PFS)” value (all randomized patients) is reported as 4.2 months and the “New metastasis site: Bone, patients” value (count) is reported as 62. For the same compound, the “New metastasis site: Breast, patients” value (count) was 13, the “New metastasis site: CNS (brain/spine), patients” value (count) was 25 and the “New metastasis site: Chest wall, patients” value (count) was 5. The “New metastasis site: Liver, patients” value (count) was 74, the “New metastasis site: Lung, patients” value (count) was 76 and the “New metastasis site: Lymph nodes, patients” value (count) was 55. For the same compound, the “New metastasis site: Other, patients” value (count) was 53, the “New metastasis site: Skin, patients” value (count) was 26 and the “Number of patients with any new metastasis observed” value (count, investigator review, intent-to-treat) was 316. For the same compound, the “patients with progression due to a new metastasis” value (investigator review) was 52.0%, the “patients with progression due to increase in the size of a pre-existing lesion” value (investigator review) was 23.5% and the “patients with progression due to other reasons such as death and clinical progression” value (investigator review) was 24.5%. For the same compound, the “patients with any new metastasis observed, percentage” value (investigator review, intent-to-treat) was “(57.7) %”, the “New metastasis site: Bone, percentage” value [1] was “(19.6) %” and the “New metastasis site: Breast, percentage” value [1] was “(4.1) %”. The “New metastasis site: CNS (brain/spine), percentage” value [1] was “(7.9) %”, the “New metastasis site: Chest wall, percentage” value [1] was “(1.6) %” and the “New metastasis site: Liver, percentage” value [1] was “(23.4) %”. The “New metastasis site: Lung, percentage” value [1] was “(24.1) %”, the “New metastasis site: Lymph nodes, percentage” value [1] was “(17.4) %” and the “New metastasis site: Other, percentage” value [1] was “(16.8) %”. For the same compound, the “New metastasis site: Skin, percentage” value [1] was “(8.2) %”, the “Median OS” value (patients whose disease progressed due to other events) was 15.5 months and the “Median OS” value (patients with progression due to new metastasis) was 12.9 months. The “Median OS” value (patients with progression due to pre-existing lesion) was 17.4 months.
